≈ marks a conversion by molar mass, not a printed value. Where a name gives a salt, the structure may show the parent alone.
Columns and labels:
[1] = test system: acute lymphoblastic leukemia (MOLT-3); experiment: cells; conditions: for IC50 (μg/mL) MOLT-3: MOLT-3 (Acute lymphoblastic leukemia), mean ± standard error, triplicate
Procedure: (§1) Background control wells contained the same volume of the complete culture medium. […] Samples at various concentrations were added to the microplate, which was incubated for another 48 h. Cell viability was determined by staining with MTT assay [3(4,5-dimethylthiazol-2-yl)-2-5diphenyl tetrazolium bromide (Sigma-Aldrich, St. Louis, Mo., USA)]. The reagent was dissolved in phosphate buffered saline at 5 mg/mL and filtered to sterilize and remove the small amount of insoluble residue present in some batches of MTT. […] Subsequently, dimethyl sulfoxide (Merck, Germany) (100 μL) was added to dissolve the resulting formazan by using sonication. The plates were read on a microplate reader (Molecular Devices, CA, USA). OD was measured at testing wavelength of 550 nm and reference wavelength of 650 nm.
XTT assay (3′-[1-[(phenylamino)-carbonyl]-3,4-tetrazolium]-bis(4-methoxy-6-nitro)benzene-sulfonic acid hydrate) for suspension cells was performed for acute lymphoblastic leukemia (MOLT-3).

HIV-1 RT = HIV-1 RT (Human immunodeficiency virus type 1 group M subtype B, UniProt P04585); experiment: In vitro HIV-1 reverse transcriptase (HIV-1 RT) kit assay; format: biochemical; conditions: for inhibition at 1 µM: read-out: Inhibition rate (%) (HIV-RT kit assay) (1 μM)
Procedure: In Vitro HIV-1 Reverse Transcriptase (HIV-1 RT) Kit Assay
The HIV-RT inhibition assay was performed using an RT assay kit (Roche) according to the protocol of the kit. […] After 1 h of incubation at 37° C., the reaction mixture was transferred to a streptavidine-coated microtiter plate (MTP). Biotin-labeled dNTPs were incorporated in the template, because of the activity of RT bound to steptavidine. The unbound dNTPs were washed with wash buffer, and antidigoxigenin-peroxidase (anti-DIG-POD) was added to the MTP. The digoxigenin-labeled dNTPs incorporated in the template was bound to the anti-DIG-POD antibody. The unbound anti-DIG-POD was washed, and the peroxide substrate (ABST) was added to the MTP. A colored reaction product was produced during the cleavage of the substrate catalyses with a peroxide enzyme. […] The resulting color intensity was directly proportional to the actual RT activity. The percentage inhibitory activity of the RT inhibitors was calculated by comparing it to that of the sample without an inhibitor.

hepatocarcinoma = experiment: cells; conditions: for IC50 (μg/mL) HepG2: HepG2 (Hepatocarcinoma), mean ± standard error, triplicate; for IC50: Homo sapiens, HepG2, read-out: IC50 (μg/mL) HepG2
Procedure: as §1

lung carcinoma = experiment: cells; conditions: for IC50 (μg/mL) A549: A549 (Lung carcinoma), mean ± standard error, triplicate
Procedure: as §1

cholangiocarcinoma = experiment: cells; conditions: for IC50 (μg/mL) HuCCA-1: HuCCA-1 (Cholangiocarcinoma), mean ± standard error, triplicate
Procedure: as §1

[2] = test system: BxPC-3 pancreatic cancer cells; conditions: read-out: in vitro EC50; cited from earlier work

Row | Compound | IC50 (μg/mL) MOLT-3 [1] [µg/mL] | Inhibition rate (%) (HIV-RT kit assay) (1 μM) (HIV-1 RT) | IC50 (μg/mL) HepG2 (hepatocarcinoma) [µg/mL] | IC50 (μg/mL) A549 (lung carcinoma) [µg/mL] | IC50 (μg/mL) HuCCA-1 (cholangiocarcinoma) [µg/mL] | further results
1 | Cc1cc(C=O)cc(C)c1Oc1cc(Oc2c(C)cc(C=O)cc2C)c2ccccc2n1 [Compound 1] | 2.62 ± 0.30 (≈ 6.16 µM) | 42.08 | 21.55 ± 5.23 (≈ 50.6 µM) | 16.37 ± 0.56 (≈ 38.5 µM) | 4.71 ± 0.30 (≈ 11.1 µM) | 
2 | Cc1cc(C=O)cc(C)c1Oc1cc(Nc2ccc(C#N)cn2)nc2ccccc12 [Compound 4] | 4.98 ± 0.43 (≈ 12.6 µM) | 62.23 | 36.53 ± 4.65 (≈ 92.6 µM) | 42.44 ± 0.48 (≈ 108 µM) | 49.5 ± 0.71 (≈ 125 µM) | 
3 | Cc1cc(C#N)cc(C)c1Oc1cc(Oc2c(C)cc(C#N)cc2C)c2ccccc2n1 [Compound 5] | ≥50 | 40.31 | 38.67 ± 2.87 (≈ 92.2 µM) | 23.28 ± 2.40 (≈ 55.5 µM) | 35.02 ± 4.65 (≈ 83.5 µM) | 
4 | Cc1cc(C#N)cc(C)c1Oc1cc(Nc2ccc(C#N)cc2)nc2ccccc12 [Compound 6] | 19.04 ± 16.02 (≈ 48.8 µM) | 47.16 | ≥50 | ≥50 | ≥50 | 
5 | N#Cc1ccc(Nc2cc(Oc3ccc(C#N)cc3)c3ccccc3n2)cc1 [Compound 7] | ≥50 | 39.71 | ≥50 | ≥50 | ≥50 | 
6 | N#Cc1ccc(Oc2cc(Nc3ccc(C#N)cn3)nc3ccccc23)cc1 [Compound 8] | 5.12 ± 0.41 (≈ 14.1 µM) | 27.61 | 39.96 ± 0.26 (≈ 110 µM) | 5.09 ± 0.81 (≈ 14 µM) | 8.31 ± 0.33 (≈ 22.9 µM) | 
7 | O=C1Nc2ccc(Cl)cc2[C@@](C#CC2CC2)(C(F)(F)F)O1 [EFV, efavirenz] |  |  |  |  |  | EC50 [2]: 315 µM
8 | Cc1ccnc2c1NC(=O)c1cccnc1N2C1CC1 [NVP, nevirapine, reference compound] |  |  |  |  |  | inhibition at 1 µM (HIV-1 RT): 55.6%
9 | Cc1cc(/C=C/C#N)cc(C)c1Nc1ccnc(Nc2ccc(C#N)cc2)n1 [TMC278, rilpivirine, reference compound] |  |  |  |  |  | inhibition at 1 µM (HIV-1 RT): 96.5%
10 | COc1cccc2c1C(=O)c1c(O)c3c(c(O)c1C2=O)C[C@@](O)(C(=O)CO)C[C@@H]3O[C@H]1C[C@H](N)[C@H](O)[C@H](C)O1 [doxorubicin hydrochloride, reference compound] |  |  |  |  |  | IC50 (hepatocarcinoma): 0.23 ± 0.02 µg/mL; IC50 (lung carcinoma; Homo sapiens, A549, read-out: IC50 (μg/mL) A549): 0.19 ± 0.01 µg/mL; IC50 (cholangiocarcinoma; Homo sapiens, HuCC-A1, read-out: IC50 (μg/mL) HuCCA-1): 0.89 ± 0.04 µg/mL
11 | COc1cc([C@@H]2c3cc4c(cc3[C@@H](O[C@@H]3O[C@@H]5CO[C@@H](C)O[C@H]5[C@H](O)[C@H]3O)[C@H]3COC(=O)[C@H]23)OCO4)cc(OC)c1O [etoposide, reference compound] |  |  |  |  |  | IC50 ([1]; Homo sapiens, MOLT-3, read-out: IC50 (μg/mL) MOLT-3): 0.048 ± 0.007 µg/mL (≈ 0.0816 µM); IC50 (hepatocarcinoma): 21.1 ± 0.7 µg/mL (≈ 35.9 µM)

Reference: patent US10889566B2, “Derivatives and composition of quinoline and naphthyridine” (CHULABHORN FOUNDATION, priority 2017, dated 2021)
